Patent US9469644B2, “Inhibitors of Bruton's tyrosine kinase” (Hoffmann-La Roche Inc., priority 2013, dated 2016)

target: Bruton's Tyrosine Kinase (BTK), inactivated state (Homo sapiens (Human), UniProt Q06187); assay: BTK inhibition TR-FRET competition assay; format: binding; conditions: TR-FRET competition with Kinase Tracer 178, 18-24 h at 14° C.
Procedure: This BTK competition assay measures compound potency (IC50) for the inactivated state of Bruton's Tyrosine Kinase using FRET (Förster/Flouresence Resonance Energy Transfer) technology. The BTK-Eu complex was incubated on ice one hour prior to use at a starting concentration of 50 nM BTK-BioeaseTM: 10 nM Eu-streptavidin (Perkin-Elmer Catalog# AD0062). The assay buffer consisted of 20 mM HEPES (pH 7.15), 0.1 mM DTT, 10 mM MgCl2, 0.5 mg/ml BSA with 3% Kinase Stabilizer (Fremont Biosolutions, Catalog #STB-K02). After 1 h, the reaction mixture from above was diluted 10 fold in assay buffer to make 5 nM BTK: 1 nM Eu-Streptavidin complex (donor fluorophore). 18 μl of a mixture of 0.11 nM BTK-Eu and 0.11 nM Kinase Tracer 178 (Invitrogen, Catalog #PV5593,) with BTK-Eu alone as no negative control, was then dispensed into 384-well flat bottom plates (Greiner, 784076). Compounds to be tested in assay were prepared as 10× concentrations and serial dilution in half-log increments was performed in DMSO so as to generate 10 point curves. To initiate the FRET reaction, compounds prepared as 10× stock in DMSO was added to the plates and the plates were incubated 18-24 h at 14° C. After the incubation the plates were read on a BMG Pherastar Fluorescent plate reader (or equivalent) and used to measure the emission energy from the europium donor fluorophore (620 nm emission) and the FRET (665 nm emission). The negative control well values were averaged to obtain the mean minimum. The positive “no inhibitor” control wells were averaged to obtain the mean maximum. […] The mean IC50 and standard deviation will be derived from duplicate curves (singlet inhibition curves from two independent dilutions) using Microsoft Excel.

Chain of Bruton's Tyrosine Kinase (BTK), inactivated state (Q06187 whole entry): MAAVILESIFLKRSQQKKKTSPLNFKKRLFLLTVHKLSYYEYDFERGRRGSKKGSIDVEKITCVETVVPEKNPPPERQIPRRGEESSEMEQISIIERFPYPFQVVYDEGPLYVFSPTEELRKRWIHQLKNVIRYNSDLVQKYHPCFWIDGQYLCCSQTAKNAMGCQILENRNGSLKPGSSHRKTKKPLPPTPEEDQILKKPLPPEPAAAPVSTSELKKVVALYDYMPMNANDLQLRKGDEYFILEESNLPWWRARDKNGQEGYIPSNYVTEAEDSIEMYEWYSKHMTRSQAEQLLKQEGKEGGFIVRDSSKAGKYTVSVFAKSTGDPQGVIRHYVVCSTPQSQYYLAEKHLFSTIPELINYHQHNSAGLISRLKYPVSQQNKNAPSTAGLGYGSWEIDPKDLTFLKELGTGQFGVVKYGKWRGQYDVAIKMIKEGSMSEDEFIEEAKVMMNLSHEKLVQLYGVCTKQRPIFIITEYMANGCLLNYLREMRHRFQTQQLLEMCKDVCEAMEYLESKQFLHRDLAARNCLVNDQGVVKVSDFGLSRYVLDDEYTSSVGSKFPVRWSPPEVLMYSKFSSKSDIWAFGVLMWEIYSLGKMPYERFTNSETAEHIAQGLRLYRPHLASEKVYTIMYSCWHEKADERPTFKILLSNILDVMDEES

With `CC(C)(C)c1ccc(C(=O)NC2CCCC(Nc3ncnc4[nH]cnc34)C2)cc1` (stereo not shown) [Compound 1, 4-tert-Butyl-N-[3-(7H-purin-6-ylamino)-cyclohexyl]-benzamide] as the compound, how does the IC50 read?
Its IC50 is 9570 nM.

How did the IC50 turn out when `O=C(NCc1cccc(Cl)c1)C1CCCC(Nc2ncnc3[nH]cnc23)C1` (stereo not shown) [Compound 2, 3-(9H-Purin-6-ylamino)-cyclohexanecarboxylic acid 3-chloro-benzylamide] was run?
The IC50 was 100000 nM.

`Cn1cc(Nc2nc(NC3CCCCC3)c3nc[nH]c3n2)cn1` [Compound 3, N*6*-Cyclohexyl-N*2*-(1-methyl-1H-pyrazol-4-yl)-9H-purine-2,6-diamine] was tested. Which IC50 did it give?
The IC50 was 2820 nM.

For `CC1CCCC(Nc2nc(Nc3cnn(C)c3)nc3[nH]cnc23)C1` (stereo not shown) [Compound 4, N*6*-(3-Methyl-cyclohexyl)-N*2*-(1-methyl-1H-pyrazol-4-yl)-9H-purine-2,6-diamine], which IC50 is on record?
The IC50 was 40600 nM.

Which IC50 does the source give for `Cn1cc(Nc2nc(NC3CCCC(NC(=O)c4ccc(C(C)(C)C)cc4)C3)c3nc[nH]c3n2)cn1` (stereo not shown) [Compound 5, 4-tert-butyl-N-{3-[2-(1-methyl-1H-pyrazol-4-ylamino)-9H-purin-6-ylamino]-cyclohexyl}-benzamide] here?
The IC50 was 56.9 nM.

`O=C(NC1CCCC(Nc2ncnc3[nH]cnc23)C1)c1ccccc1` (stereo not shown) [Compound 6] was tested. Which IC50 did it give?
Its IC50 is 45.3 nM.

With `CC(C)(C)OC(=O)NC1CCCC(C(=O)O)C1` (stereo not shown) [Compound 7] as the compound, how does the IC50 read?
Its IC50 is 109 nM.
